Measurements published in ChEMBL document CHEMBL2440105, “Synthesis and anti-parasitic activity of a novel quinolinone-chalcone series” (Bioorg Med Chem Lett, 2013).

Tests used:
[1] = system: Trypanosoma brucei brucei; test: Trypanocidal activity against bloodstream forms of Trypanosoma brucei brucei Lister 427 clone 221a after 72 hrs by AlamarBlue assay; assay type: functional, organism-based
Leishmania infantum = test: Antileishmanial activity against Leishmania infantum MOM/MA671TMAP263 axenic amastigotes infected in THP1 cells after 72 hrs by luciferase reporter gene assay; assay type: functional, organism-based; details: MOM/MA671TMAP263, THP-1, 72 h
THP-1 [2] = test: Cytotoxicity against human THP1 cells after 72 hrs by MTT assay; assay type: cell-based; details: THP-1, 72 h
THP-1 [3] = test: Cytotoxicity against human THP1 cells by AlamarBlue assay

| Compound | IC50 [1] [µM] | IC50 (Leishmania infantum) [µM] | IC50 (THP-1 [2]) [µM] | IC50 (THP-1 [3]) [µM] |
| --- | --- | --- | --- | --- |
| COc1cc(/C=C/C(=O)c2c(O)c3ccccc3[nH]c2=O)ccc1O | 4.9 | 11.5 | 23.3 |  |
| O=C(O)c1ccc(/C=C/C(=O)c2c(O)c3ccccc3[nH]c2=O)cc1 | > 10 | 18.4 | > 50 |  |
| COc1ccc(/C=C/C(=O)c2c(O)c3ccccc3[nH]c2=O)cc1 | > 10 | 12.7 | > 50 |  |
| CCn1c(=O)c(C(=O)/C=C/c2ccccc2C)c(O)c2ccccc21 | > 10 | 24.8 | > 50 |  |
| C[C@@H]1[C@H](O)[C@@H](C)/C=C/C=C/C=C/C=C/C=C/C=C/C=C/[C@H](O[C@@H]2O[C@H](C)[C@@H](O)[C@H](N)[C@@H]2O)C[C@@H]2O[C@](O)(C[C@@H](O)C[C@@H](O)[C@H](O)CC[C@@H](O)C[C@@H](O)CC(=O)O[C@H]1C)C[C@H](O)[C@H]2C(=O)O [AMPHOTERICIN B] |  | 1.2 | 23.8 |  |
| Cc1ccccc1/C=C/C(=O)c1c(O)c2ccccc2n(Cc2ccccc2)c1=O | 6.17 | > 25 | 45.7 |  |
| O=C(/C=C/C=C/c1ccccc1)c1c(O)c2ccccc2[nH]c1=O | > 10 | > 50 | > 50 |  |
| Cc1ccccc1/C=C/C(=O)c1c(O)c2ccccc2[nH]c1=O | 2.6 | > 50 | > 50 |  |
| CC(=O)N1N=C(c2c(O)c3ccccc3[nH]c2=O)CC1c1ccccc1C (stereo not drawn) | 1.43 | 0.71 | 4.15 |  |
| CCn1c(=O)c(C(=O)/C=C/c2ccc(OC)c(OC)c2)c(O)c2ccccc21 | > 10 | > 50 | > 50 |  |
| COc1ccc(/C=C/C(=O)c2c(O)c3ccccc3[nH]c2=O)cc1OC | 4.9 | 7.5 | > 50 |  |
| COc1ccc(C2CC(c3c(O)c4ccccc4[nH]c3=O)=NN2c2ccccc2)cc1OC (stereo not drawn) | 1.46 | 13.5 | > 50 |  |
| CC(/C=C/C(=O)c1c(O)c2ccccc2[nH]c1=O)=C\c1ccccc1 | > 10 | 20 | > 50 |  |
| CC1CS(=O)(=O)CCN1/N=C/c1ccc([N+](=O)[O-])o1 (stereo not drawn) [NIFURTIMOX] | 2.9 |  |  | > 100 |
| O=C(/C=C/c1ccc(C(F)(F)F)cc1)c1c(O)c2ccccc2[nH]c1=O | > 10 | 3.1 | > 50 |  |
| Cc1ccc(/C=C/C(=O)c2c(O)c3ccccc3[nH]c2=O)cc1 | > 10 | 2.1 | > 50 |  |
| CC(C)(C)c1cc(/C=C/C(=O)c2c(O)c3ccccc3[nH]c2=O)cc(C(C)(C)C)c1O | 3.3 | 1.3 | 26.2 |  |
| O=C(/C=C/c1ccc([N+](=O)[O-])cc1)c1c(O)c2ccccc2[nH]c1=O | > 10 | 26.9 | > 50 |  |
| COc1cccc(/C=C/C(=O)c2c(O)c3ccccc3[nH]c2=O)c1 | 6.5 | 28.4 | 38.5 |  |
| COc1ccc(/C=C/C(=O)c2c(O)c3ccccc3n(Cc3ccccc3)c2=O)cc1OC | 5.68 | > 25 | 28.7 |  |
